Assay results published in ChEMBL document CHEMBL1201862, “PubChem BioAssay data set” (2004).
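Step 1: Grow cells in 96-well plates. Step 2: Expose to compound for 48 hours at 5 concentrations. Step 3: Interpolate endpoints linearly; if unreached, use highest concentration. Here, GI50 denotes the concentration required for 50% inhibition of growth.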 Activity calls are given as the source filed them. No stated cut-off is given here; in the data, active = GI50 up to about 1.1 µM and inactive = higher.

Assays:
Assay in all cases: growth of human tumour cells (NCI), 48 h
NCI-H226 = tested on: NCI-H226
PC-3 = tested on: PC-3
LOX IMVI = tested on: LOX IMVI
HOP-62 = tested on: HOP-62
A549 = tested on: A549
NCI-H23 = tested on: NCI-H23
RXF 393 = tested on: RXF 393
OVCAR-8 = tested on: OVCAR-8
A498 = tested on: A498
NCI/ADR-RES = tested on: NCI/ADR-RES
K562 = tested on: K562
SF-268 = tested on: SF-268
M14 = tested on: M14
HCC 2998 = tested on: HCC 2998
T47D = tested on: T47D
786-0 = tested on: 786-0
TK-10 = tested on: TK-10
ACHN = tested on: ACHN
MOLT-4 = tested on: MOLT-4
HL-60 = tested on: HL-60
SF-295 = tested on: SF-295
SK-MEL-5 = tested on: SK-MEL-5
IGROV-1 = tested on: IGROV-1
SK-MEL-2 = tested on: SK-MEL-2
NCI-H460 = tested on: NCI-H460
Malme-3M = tested on: Malme-3M
SNB-75 = tested on: SNB-75
HCT-116 = tested on: HCT-116
KM12 = tested on: KM12
UO-31 = tested on: UO-31
SF-539 = tested on: SF-539
DU-145 = tested on: DU-145
SN12C = tested on: SN12C
Hs-578T = tested on: Hs-578T
HOP-92 = tested on: HOP-92
MDA-MB-435 = tested on: MDA-MB-435
MDA-MB-231 = tested on: MDA-MB-231
U-251 = tested on: U-251
SK-OV-3 = tested on: SK-OV-3
BT-549 = tested on: BT-549
SW-620 = tested on: SW-620
EKVX = tested on: EKVX
CAKI-1 = tested on: CAKI-1
MDA-N = tested on: MDA-N
SNB-19 = tested on: SNB-19
OVCAR-3 = tested on: OVCAR-3
HT-29 = tested on: HT-29
CCRF-CEM = tested on: CCRF-CEM
UACC-62 = tested on: UACC-62
MCF7 = tested on: MCF7
SR = tested on: SR
NCI-H522 = tested on: NCI-H522
HCT-15 = tested on: HCT-15
RPMI-8226 = tested on: RPMI-8226
OVCAR-4 = tested on: OVCAR-4
UACC-257 = tested on: UACC-257
OVCAR-5 = tested on: OVCAR-5
COLO 205 = tested on: COLO 205
SK-MEL-28 = tested on: SK-MEL-28
HOP-18 = tested on: HOP-18
SNB-78 = tested on: SNB-78
DLD-1 = tested on: DLD-1
LXFL 529 = tested on: LXFL 529
DMS-273 = tested on: DMS-273
M19-MEL = tested on: M19-MEL

CC(C)OP(=O)(OC(C)C)C(Nc1cccc(C(F)(F)F)c1)c1ccccc1 (stereo not drawn)
GI50 (NCI-H226): 60 µM (inactive) | GI50 (PC-3): 37.2 µM (inactive) | GI50 (LOX IMVI): 39.4 µM (inactive) | GI50 (HOP-62): 69.7 µM (inactive) | GI50 (A549): 30.5 µM (inactive) | GI50 (NCI-H23): 55.6 µM (inactive) | GI50 (RXF 393): 49.5 µM (inactive) | GI50 (OVCAR-8): 59.4 µM (inactive) | GI50 (A498): > 100 µM (inactive) | GI50 (NCI/ADR-RES): 32.7 µM (inactive) | GI50 (K562): 23.4 µM (inactive) | GI50 (SF-268): > 100 µM (inactive) | GI50 (M14): 38.5 µM (inactive) | GI50 (HCC 2998): 55.6 µM (inactive) | GI50 (T47D): 35.7 µM (inactive) | GI50 (786-0): 70.3 µM (inactive) | GI50 (TK-10): > 100 µM (inactive) | GI50 (ACHN): 35.6 µM (inactive) | GI50 (MOLT-4): 13.7 µM (inactive) | GI50 (HL-60): 14.7 µM (inactive) | GI50 (SF-295): 47.9 µM (inactive) | GI50 (SK-MEL-5): 22.4 µM (inactive) | GI50 (IGROV-1): 79.4 µM (inactive) | GI50 (SK-MEL-2): 50.7 µM (inactive) | GI50 (NCI-H460): 24 µM (inactive) | GI50 (Malme-3M): 32.3 µM (inactive) | GI50 (SNB-75): > 100 µM (inactive) | GI50 (HCT-116): 17.1 µM (inactive) | GI50 (KM12): 40.6 µM (inactive) | GI50 (UO-31): 17.9 µM (inactive) | GI50 (SF-539): > 100 µM (inactive) | GI50 (DU-145): 77.6 µM (inactive) | GI50 (SN12C): 37.7 µM (inactive) | GI50 (Hs-578T): 75.3 µM (inactive) | GI50 (HOP-92): 17.1 µM (inactive) | GI50 (MDA-MB-435): 41.6 µM (inactive) | GI50 (MDA-MB-231): 45.9 µM (inactive) | GI50 (U-251): 58.5 µM (inactive) | GI50 (SK-OV-3): > 100 µM (inactive) | GI50 (BT-549): 17.7 µM (inactive) | GI50 (SW-620): > 10 µM (inactive) | GI50 (EKVX): 33.3 µM (inactive) | GI50 (CAKI-1): 18.7 µM (inactive) | GI50 (MDA-N): 41 µM (inactive) | GI50 (SNB-19): 71.6 µM (inactive) | GI50 (OVCAR-3): 35.6 µM (inactive) | GI50 (HT-29): 21.6 µM (inactive) | GI50 (CCRF-CEM): 31 µM (inactive) | GI50 (UACC-62): 69.8 µM (inactive) | GI50 (MCF7): 46.9 µM (inactive) | GI50 (SR): 21.9 µM (inactive) | GI50 (NCI-H522): 20.2 µM (inactive) | GI50 (HCT-15): 55.5 µM | GI50 (RPMI-8226): 12.7 µM (inactive) | GI50 (OVCAR-4): 54.8 µM (inactive) | GI50 (UACC-257): 39.1 µM (inactive) | GI50 (OVCAR-5): > 100 µM (inactive) | GI50 (COLO 205): 25.5 µM (inactive) | GI50 (SK-MEL-28): 93.5 µM (inactive)

CCN(CC)C(=S)SS(C)(=O)=O
GI50 (NCI-H226): 14.8 µM (inactive) | GI50 (LOX IMVI): 13.6 µM (inactive) | GI50 (HOP-62): 18.7 µM (inactive) | GI50 (NCI-H23): 19.9 µM (inactive) | GI50 (RXF 393): 11 µM (inactive) | GI50 (OVCAR-8): 19.8 µM (inactive) | GI50 (K562): < 0.01 µM (active) | GI50 (HOP-18): 38.2 µM (inactive) | GI50 (SNB-78): 23.7 µM (inactive) | GI50 (M14): 18.2 µM (inactive) | GI50 (DLD-1): 18 µM (inactive) | GI50 (786-0): 19.2 µM (inactive) | GI50 (TK-10): 18.3 µM (inactive) | GI50 (ACHN): 16.7 µM (inactive) | GI50 (MOLT-4): 15.8 µM (inactive) | GI50 (LXFL 529): 16.4 µM (inactive) | GI50 (HL-60): 5.12 µM (inactive) | GI50 (SF-295): 18.9 µM (inactive) | GI50 (SK-MEL-5): 25.5 µM (inactive) | GI50 (DMS-273): 20.3 µM (inactive) | GI50 (IGROV-1): > 100 µM (inactive) | GI50 (SK-MEL-2): 17.7 µM (inactive) | GI50 (Malme-3M): 26.7 µM (inactive) | GI50 (SNB-75): 29.6 µM (inactive) | GI50 (HCT-116): 26.4 µM (inactive) | GI50 (KM12): 17.1 µM (inactive) | GI50 (UO-31): 19 µM (inactive) | GI50 (SF-539): 22 µM (inactive) | GI50 (SN12C): 16 µM (inactive) | GI50 (HOP-92): 30.6 µM (inactive) | GI50 (U-251): 17.7 µM (inactive) | GI50 (SK-OV-3): 75.7 µM (inactive) | GI50 (SW-620): 18.5 µM (inactive) | GI50 (EKVX): 37.2 µM (inactive) | GI50 (CAKI-1): 22.4 µM (inactive) | GI50 (SNB-19): 23.9 µM (inactive) | GI50 (HT-29): 17.3 µM (inactive) | GI50 (UACC-62): 15.1 µM (inactive) | GI50 (NCI-H522): < 0.01 µM (active) | GI50 (HCT-15): 13.4 µM | GI50 (OVCAR-4): 19.6 µM (inactive) | GI50 (UACC-257): 23.2 µM (inactive) | GI50 (OVCAR-5): 19.4 µM (inactive) | GI50 (M19-MEL): 16.4 µM (inactive) | GI50 (COLO 205): 15.4 µM (inactive)

[N-]=[N+]=Nc1ccc(CNc2cc(=O)[nH]c(=O)[nH]2)cc1
GI50 (NCI-H226): > 100 µM (inactive) | GI50 (PC-3): > 100 µM (inactive) | GI50 (LOX IMVI): > 100 µM (inactive) | GI50 (HOP-62): > 100 µM (inactive) | GI50 (A549): > 100 µM (inactive) | GI50 (NCI-H23): > 100 µM (inactive) | GI50 (RXF 393): > 100 µM (inactive) | GI50 (OVCAR-8): > 100 µM (inactive) | GI50 (A498): > 100 µM (inactive) | GI50 (NCI/ADR-RES): > 100 µM (inactive) | GI50 (K562): > 100 µM (inactive) | GI50 (SF-268): > 100 µM (inactive) | GI50 (M14): > 100 µM (inactive) | GI50 (HCC 2998): > 100 µM (inactive) | GI50 (T47D): > 100 µM (inactive) | GI50 (786-0): > 100 µM (inactive) | GI50 (TK-10): > 100 µM (inactive) | GI50 (ACHN): > 100 µM (inactive) | GI50 (MOLT-4): > 100 µM (inactive) | GI50 (HL-60): > 100 µM (inactive) | GI50 (SF-295): > 100 µM (inactive) | GI50 (SK-MEL-5): > 100 µM (inactive) | GI50 (IGROV-1): > 95.7 µM (inactive) | GI50 (SK-MEL-2): > 100 µM (inactive) | GI50 (NCI-H460): > 100 µM (inactive) | GI50 (Malme-3M): > 100 µM (inactive) | GI50 (SNB-75): > 100 µM (inactive) | GI50 (HCT-116): > 100 µM (inactive) | GI50 (KM12): > 100 µM (inactive) | GI50 (UO-31): > 100 µM (inactive) | GI50 (SF-539): > 100 µM (inactive) | GI50 (DU-145): > 100 µM (inactive) | GI50 (SN12C): > 100 µM (inactive) | GI50 (Hs-578T): > 100 µM (inactive) | GI50 (HOP-92): > 100 µM (inactive) | GI50 (MDA-MB-435): > 49.2 µM (inactive) | GI50 (MDA-MB-231): > 100 µM (inactive) | GI50 (U-251): > 100 µM (inactive) | GI50 (SK-OV-3): > 100 µM (inactive) | GI50 (BT-549): > 100 µM (inactive) | GI50 (SW-620): > 64.1 µM (inactive) | GI50 (EKVX): > 100 µM (inactive) | GI50 (CAKI-1): > 100 µM (inactive) | GI50 (MDA-N): > 100 µM (inactive) | GI50 (SNB-19): > 100 µM (inactive) | GI50 (OVCAR-3): > 100 µM (inactive) | GI50 (HT-29): > 100 µM (inactive) | GI50 (CCRF-CEM): > 100 µM (inactive) | GI50 (UACC-62): > 100 µM (inactive) | GI50 (MCF7): > 100 µM (inactive) | GI50 (SR): > 100 µM (inactive) | GI50 (NCI-H522): > 100 µM (inactive) | GI50 (HCT-15): > 100 µM | GI50 (RPMI-8226): > 100 µM (inactive) | GI50 (OVCAR-4): > 100 µM (inactive) | GI50 (UACC-257): > 100 µM (inactive) | GI50 (OVCAR-5): > 100 µM (inactive) | GI50 (COLO 205): > 100 µM (inactive) | GI50 (SK-MEL-28): > 50.7 µM (inactive)
